System: Crude diglycosidase
Experiment: Examination of pH in the conversion into isoflavone aglycons by diglycosidase using soybean materials
Format: biochemical, Penicillium multicolor IAM7153
Design: Decomposition efficiency of genistin family in soymilk / Decomposition efficiency of genistin family in defatted soybean / Decomposition efficiency of daidzin family in defatted soybean: concentration or dose not given beside the values
Conditions: for Decomposition efficiency of genistin family in roasted soy flour: 55° C.
Experimental: A substrate solution of 450 μL was prepared by suspending 50 mg of each soybean material (roasted soy flour (manufactured by Fuji Shokuryo K.K.), soymilk (manufactured by Gitoh Shokuhin K.K.), defatted soybean (manufactured by Fuji Seiyu K.K.), concentrated soybean protein (manufactured by Fuji Seiyu K.K.)), and adjusting the pH to 2 to 11 with hydrochloric acid or sodium hydroxide. Each enzyme solution of pH 2–11 wherein diglycosidase activity of crude diglycosidase was adjusted to 1.88 AU/mL was added thereto in an amount of 50 μL and the whole was reacted at 55° C. at the total volume of 500 μL. To the reaction mixture was added 700 μL of ethanol after 0, 1, 3, and 6 hours of the reaction. After stirring and ultrasonication, the mixture was subjected to centrifugal separation at 15,000 rpm and 4° C. for 10 minutes. The supernatant was filtered through a filter and the existence of isoflavone glycosides and aglycon isoflavones contained in the reaction mixture was detected by HLPC (Tables 15 to 26).

[1] = pH6.6, heat treatment of enzyme: no, reaction time 0 h
[2] = pH6.6, heat treatment of enzyme: no, reaction time 1 h
[3] = pH6.6, heat treatment of enzyme: no, reaction time 3 h
[4] = pH6.6, heat treatment of enzyme: no, reaction time 6 h
[5] = pH6.6, heat treatment of enzyme: yes, reaction time 6 h

Decomposition efficiency of genistin family in roasted soy flour (pH5, heat treatment of enzyme no, reaction time 0 h): 45.4
Decomposition efficiency of genistin family in roasted soy flour (pH5, heat treatment of enzyme no, reaction time 1 h): 39.9
Decomposition efficiency of genistin family in roasted soy flour (pH5, heat treatment of enzyme no, reaction time 3 h): 26.9
Decomposition efficiency of genistin family in roasted soy flour (pH5, heat treatment of enzyme no, reaction time 6 h): 17.6
Decomposition efficiency of genistin family in roasted soy flour (pH5, heat treatment of enzyme yes, reaction time 6 h): 42.0
Decomposition efficiency of genistin family in concentrated soybean protein (pH5.1, heat treatment of enzyme: no, reaction time 0 h): 43.1%
Decomposition efficiency of genistin family in concentrated soybean protein (pH5.1, heat treatment of enzyme: no, reaction time 1 h): 45.2%
Decomposition efficiency of genistin family in concentrated soybean protein (pH5.1, heat treatment of enzyme: no, reaction time 3 h): 40.2%
Decomposition efficiency of genistin family in concentrated soybean protein (pH5.1, heat treatment of enzyme: no, reaction time 6 h): 35.6%
Decomposition efficiency of genistin family in concentrated soybean protein (pH5.1, heat treatment of enzyme: yes, reaction time 6 h): 42.4%
Decomposition efficiency of genistin family in defatted soybean (pH5.4, heat treatment of enzyme: no, reaction time 0 h): 1.8%
Decomposition efficiency of genistin family in defatted soybean (pH5.4, heat treatment of enzyme: no, reaction time 1 h): 0.5%
Decomposition efficiency of genistin family in defatted soybean (pH5.4, heat treatment of enzyme: no, reaction time 3 h): not detected
Decomposition efficiency of genistin family in defatted soybean (pH5.4, heat treatment of enzyme: no, reaction time 6 h): not detected
Decomposition efficiency of genistin family in defatted soybean (pH5.4, heat treatment of enzyme: yes, reaction time 6 h): not detected
Decomposition efficiency of genistin family in soymilk (pH6.2, heat treatment of enzyme: no, reaction time 0 h): 0.5%
Decomposition efficiency of genistin family in soymilk (pH6.2, heat treatment of enzyme: no, reaction time 1 h): not detected
Decomposition efficiency of genistin family in soymilk (pH6.2, heat treatment of enzyme: no, reaction time 3 h): not detected
Decomposition efficiency of genistin family in soymilk (pH6.2, heat treatment of enzyme: no, reaction time 6 h): not detected
Decomposition efficiency of genistin family in soymilk (pH6.2, heat treatment of enzyme: yes, reaction time 6 h): 0.6%
Decomposition efficiency of genistin family in roasted soy flour (pH6.5, heat treatment of enzyme no, reaction time 0 h): 45.8
Decomposition efficiency of genistin family in roasted soy flour (pH6.5, heat treatment of enzyme no, reaction time 1 h): 45.3
Decomposition efficiency of genistin family in roasted soy flour (pH6.5, heat treatment of enzyme no, reaction time 3 h): 38.8
Decomposition efficiency of genistin family in roasted soy flour (pH6.5, heat treatment of enzyme no, reaction time 6 h): 34.0
Decomposition efficiency of genistin family in roasted soy flour (pH6.5, heat treatment of enzyme yes, reaction time 6 h): 39.2
Decomposition efficiency of genistin family in concentrated soybean protein [1]: 43.0%
Decomposition efficiency of genistin family in defatted soybean [1]: 1.7%
Decomposition efficiency of genistin family in concentrated soybean protein [2]: 43.6%
Decomposition efficiency of genistin family in defatted soybean [2]: 0.6%
Decomposition efficiency of genistin family in concentrated soybean protein [3]: 42.8%
Decomposition efficiency of genistin family in defatted soybean [3]: 0.3%
Decomposition efficiency of genistin family in concentrated soybean protein [4]: 41.0%
Decomposition efficiency of genistin family in defatted soybean [4]: 0.2%
Decomposition efficiency of genistin family in concentrated soybean protein [5]: 40.6%
Decomposition efficiency of genistin family in defatted soybean [5]: 0.2%
Decomposition efficiency of genistin family in soymilk (pH7.2, heat treatment of enzyme: no, reaction time 0 h): 0.7%
Decomposition efficiency of genistin family in soymilk (pH7.2, heat treatment of enzyme: no, reaction time 1 h): not detected
Decomposition efficiency of genistin family in soymilk (pH7.2, heat treatment of enzyme: no, reaction time 3 h): not detected
Decomposition efficiency of genistin family in soymilk (pH7.2, heat treatment of enzyme: no, reaction time 6 h): not detected
Decomposition efficiency of genistin family in soymilk (pH7.2, heat treatment of enzyme: yes, reaction time 6 h): 0.7%
Decomposition efficiency of genistin family in defatted soybean (pH7.8, heat treatment of enzyme: no, reaction time 0 h): 1.6%
Decomposition efficiency of genistin family in defatted soybean (pH7.8, heat treatment of enzyme: no, reaction time 1 h): 1.0%
Decomposition efficiency of genistin family in defatted soybean (pH7.8, heat treatment of enzyme: no, reaction time 3 h): 0.8%
Decomposition efficiency of genistin family in defatted soybean (pH7.8, heat treatment of enzyme: no, reaction time 6 h): 0.7%
Decomposition efficiency of genistin family in defatted soybean (pH7.8, heat treatment of enzyme: yes, reaction time 6 h): 0.6%
Decomposition efficiency of genistin family in roasted soy flour (pH8.5, heat treatment of enzyme no, reaction time 0 h): 39.5
Decomposition efficiency of genistin family in roasted soy flour (pH8.5, heat treatment of enzyme no, reaction time 1 h): 39.5
Decomposition efficiency of genistin family in roasted soy flour (pH8.5, heat treatment of enzyme no, reaction time 3 h): 39.2
Decomposition efficiency of genistin family in roasted soy flour (pH8.5, heat treatment of enzyme no, reaction time 6 h): 37.3
Decomposition efficiency of genistin family in roasted soy flour (pH8.5, heat treatment of enzyme yes, reaction time 6 h): 35.2
Decomposition efficiency of genistin family in concentrated soybean protein (pH8.6, heat treatment of enzyme: no, reaction time 0 h): 39.7%
Decomposition efficiency of genistin family in concentrated soybean protein (pH8.6, heat treatment of enzyme: no, reaction time 1 h): 38.8%
Decomposition efficiency of genistin family in concentrated soybean protein (pH8.6, heat treatment of enzyme: no, reaction time 3 h): 39.0%
Decomposition efficiency of genistin family in concentrated soybean protein (pH8.6, heat treatment of enzyme: no, reaction time 6 h): 38.5%
Decomposition efficiency of genistin family in concentrated soybean protein (pH8.6, heat treatment of enzyme: yes, reaction time 6 h): 37.6%
Decomposition efficiency of genistin family in soymilk (pH11.6, heat treatment of enzyme: no, reaction time 0 h): 0.5%
Decomposition efficiency of genistin family in soymilk (pH11.6, heat treatment of enzyme: no, reaction time 1 h): not detected
Decomposition efficiency of genistin family in soymilk (pH11.6, heat treatment of enzyme: no, reaction time 3 h): not detected
Decomposition efficiency of genistin family in soymilk (pH11.6, heat treatment of enzyme: no, reaction time 6 h): not detected
Decomposition efficiency of genistin family in soymilk (pH11.6, heat treatment of enzyme: yes, reaction time 6 h): 0.9%
Structure (SMILES): CC(=O)OC[C@H]1O[C@@H](Oc2cc(O)c3c(=O)c(-c4ccc(O)cc4)coc3c2)[C@H](O)[C@@H](O)[C@@H]1O [acetylgenistin, 6″-O-acetylgenistin]

— patent publication US7118895B2, “Process for producing aglycon by using diglycosidase and flavor-improved food containing the aglycon and converting agent to be used in the process” (Amano Enzyme Inc., priority 2000, dated 2006)
